Assay results as given in patent US12661410B2, “Compounds for targeted degradation of RET” (C4 Therapeutics, Inc., priority 2020, dated 2026).
Changes are numbered by the printed parent chain. Read-outs that look alike come from different tables or passages of the source.

Tests used:
[1] = target: T1, RET(KD: 658-1114 G810R) (Homo sapiens, UniProt P07949, G810R); assay: HiBiT-Degradation, RET G810R degradation assay (Nano-Glo HiBiT Lytic), 293T.165 cells; type: cell-based; settings: for Emax / DC50: 6.0 hours
T1 construct: 658-1114; expressed in transfected cells; host or cells: 293T.165 (293T cells, generated in-house)
T1 sequence (P07949 658-1114 G810R): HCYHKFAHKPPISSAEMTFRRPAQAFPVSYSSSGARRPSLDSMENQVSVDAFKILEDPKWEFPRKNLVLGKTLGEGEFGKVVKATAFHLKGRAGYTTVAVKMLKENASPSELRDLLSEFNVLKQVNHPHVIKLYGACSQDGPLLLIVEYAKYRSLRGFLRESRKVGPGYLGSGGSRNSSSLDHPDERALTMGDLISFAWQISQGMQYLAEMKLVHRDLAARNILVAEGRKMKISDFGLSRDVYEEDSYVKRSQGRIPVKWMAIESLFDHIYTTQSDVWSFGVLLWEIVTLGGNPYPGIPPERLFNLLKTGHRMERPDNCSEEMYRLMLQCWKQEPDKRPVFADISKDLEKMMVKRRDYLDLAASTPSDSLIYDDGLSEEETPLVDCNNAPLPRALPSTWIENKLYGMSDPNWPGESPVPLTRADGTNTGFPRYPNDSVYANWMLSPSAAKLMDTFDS
Method in brief: (§1)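 Luminescence readout of HiBiT-tagged RET kinase domain remaining after 6 h compound exposure. Cells: 293T.144 (wild type) or 293T.165 (G810R), 11 half-log doses up to 10 μM, duplicates. DC50 and Emax as % remaining protein taken from curve fits.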

[2] = target: T2, RET (658-1114) (Homo sapiens, UniProt P07949); assay: HiBiT-Degradation, RET wild-type degradation assay (Nano-Glo HiBiT Lytic), 293T.144 cells; type: cell-based; settings: for Emax / DC50: 6.0 hours
T2 construct: 658-1114; expressed in transfected cells; host or cells: 293T.144 (293T cells, generated in-house)
T2 sequence (P07949 658-1114): T1 sequence (P07949 658-1114 G810R) with R153G
Method in brief: as §1

[3] = % remaining protein, read-out: 293T.165 RET(KD: 658-1114 G810R) 6.0 hours (Emax)
[4] = half-maximal degradation concentration, read-out: 293T.165 RET(KD: 658-1114 G810R) 6.0 hours (DC50)
[5] = % remaining protein, read-out: 293T.144 RET (658-1114) 6.0 hours (Emax)
[6] = half-maximal degradation concentration, read-out: 293T.144 RET (658-1114) 6.0 hours (DC50)
[7] = HiBiT-Degradation, read-out: 293T.165 RET(KD: 658-1114 G810R) 6.0 hours (DC50)
[8] = HiBiT-Degradation, read-out: 293T.144 RET (658-1114) 6.0 hours (DC50)
[9] = HiBiT-Degradation, read-out: 293T.144 RET (658-1114) 6.0 hours (Emax)

Row | SMILES | 293T.165 RET(KD: 658-1114 G810R) 6.0 hours (IP) [nM] [1] | Emax [1, 3] | DC50 [1, 4] | 293T.144 RET (658-1114) 6.0 hours (IP) [nM] [2] | Emax [2, 5] | DC50 [2, 6] | 293T.165 RET(KD: 658-1114 G810R) 6.0 hours (Emax) ([1]; HiBiT-Degradation) | 293T.165 RET(KD: 658-1114 G810R) 6.0 hours (IP) [nM] ([1]; HiBiT-Degradation) | DC50 [1, 7] | 293T.144 RET (658-1114) 6.0 hours (IP) [nM] ([2]; HiBiT-Degradation) | DC50 [2, 8] | Emax [2, 9] | HiBiT-Degradation 293T.165 RET(KD: 658-1114 G810R) 6.0 hours (IP) [nM] ([1]; RET G810R) | DC50 ([1]; RET G810R, read-out: HiBiT-Degradation 293T.165 RET(KD: 658-1114 G810R) 6.0 hours (DC50)) | Emax ([1]; RET G810R, read-out: HiBiT-Degradation 293T.165 RET(KD: 658-1114 G810R) 6.0 hours (Emax)) | HiBiT-Degradation 293T.144 RET (658-1114) 6.0 hours (IP) [nM] ([2]; RET wild-type) | DC50 ([2]; RET wild-type, read-out: HiBiT-Degradation 293T.144 RET (658-1114) 6.0 hours (DC50)) | Emax ([2]; RET wild-type, read-out: HiBiT-Degradation 293T.144 RET (658-1114) 6.0 hours (Emax))
1 | CC1(c2ncccn2)CCN(c2ccc(-c3nc(-c4cnn(C5CCN(C(=O)CC6(O)CCN(c7ccc(NC8CCC(=O)NC8=O)cc7F)CC6)CC5)c4)cn4ncc(C#N)c34)cn2)CC1 (stereo not drawn) [Compound 104, 6-[1-[1-[2-[1-[4-[(2,6-dioxo-3-piperidyl)amino]-2-fluoro-phenyl]-4-hydroxy-4-piperidyl]acetyl]-4-piperidyl]pyrazol-4-yl]-4-[6-(4-methyl-4-pyrimidin-2-yl-1-piperidyl)-3-pyridyl]pyrazolo[1,5-a]pyrazine-3-carbonitrile] | ++++ (<50 nM = ++++) | < 30% | < 50 nM | ++++ (<50 nM = ++++) | < 30% | < 50 nM | – | – | – | – | – | – | – | – | – | – | – | –
2 | CCC1(C(=O)NC2CCOCC2)CCN(c2ccc(-c3nc(-c4cnn([C@H]5CC[C@H](N6CCC(c7ccc(N[C@H]8CCC(=O)NC8=O)cc7F)CC6)CC5)c4)cn4ncc(C#N)c34)cn2)CC1 (stereo in doubt) [Compound 144, 1-(5-(3-cyano-6-(1-((1S,4r)-4-(4-(4-(((S)-2,6-dioxopiperidin-3-yl)amino)-2-fluorophenyl)piperidin-1-yl)cyclohexyl)-1H-pyrazol-4-yl)pyrazolo[1,5-a]pyrazin-4-yl)pyridin-2-yl)-4-ethyl-N-(tetrahydro-2H-pyran-4-yl)piperidine-4-carboxamide] | ++++ (<50 nM = ++++) | < 30% | < 50 nM | ++++ (<50 nM = ++++) | < 30% | < 50 nM | – | – | – | – | – | – | – | – | – | – | – | –
3 | CCC1(C(=O)NC(C)C)CCN(c2ccc(-c3nc(-c4cnn(C5CCN(C(=O)CN6C7CCC6CC(c6ccc(NC8CCC(=O)NC8=O)cc6)C7)CC5)c4)cn4ncc(C#N)c34)cn2)CC1 (stereo not drawn) [Compound 9, 1-[5-[3-cyano-6-[1-[1-[2-[3-[4-[(2,6-dioxo-3-piperidyl)amino]phenyl]-8-azabicyclo[3.2.1]octan-8-yl]acetyl]-4-piperidyl]pyrazol-4-yl]pyrazolo[1,5-a]pyrazin-4-yl]-2-pyridyl]-4-ethyl-N-isopropyl-piperidine-4-carboxamide] | – | < 30% | < 100 nM | – | – | – | ++++ (< 30% = ++++) | ++++ (< 50 nM = ++++) | < 100 nM | ++++ (< 50 nM = ++++) | < 50 nM | < 30% | – | – | – | – | – | –
4 | CCC1(C(=O)NC(C)C)CCN(c2ccc(-c3nc(-c4cnn(C5CCC6(CC5)CN(C(=O)CC5(O)CCN(c7ccc(NC8CCC(=O)NC8=O)cc7F)CC5)C6)c4)cn4ncc(C#N)c34)cn2)CC1 (stereo not drawn) [Compound 182, 1-(5-(3-Cyano-6-(1-(2-(2-(1-(4-((2,6-dioxopiperidin-3-yl)amino)-2-fluorophenyl)-4-hydroxypiperidin-4-yl)acetyl)-2-azaspiro[3.5]nonan-7-yl)-1H-pyrazol-4-yl)pyrazolo[1,5-a]pyrazin-4-yl)pyridin-2-yl)-4-ethyl-N-isopropylpiperidine-4-carboxamide] | ++++ (<50 nM = ++++) | < 50% | < 50 nM | ++++ (<50 nM = ++++) | < 30% | < 50 nM | – | – | – | – | – | – | – | – | – | – | – | –
5 | N#Cc1cnn2cc(-c3cnn(C4CCN(C(=O)CC5(O)CCN(c6ccc(NC7CCC(=O)NC7=O)cc6F)CC5)CC4)c3)nc(-c3ccc(N4CCC(O)(Cc5ccccc5)CC4)nc3)c12 (stereo not drawn) [Compound 117, 4-[6-(4-benzyl-4-hydroxy-1-piperidyl)-3-pyridyl]-6-[1-[1-[2-[1-[4-[(2,6-dioxo-3-piperidyl)amino]-2-fluoro-phenyl]-4-hydroxy-4-piperidyl]acetyl]-4-piperidyl]pyrazol-4-yl]pyrazolo[1,5-a]pyrazine-3-carbonitrile] | ++++ (<50 nM = ++++) | < 30% | < 50 nM | ++++ (<50 nM = ++++) | < 30% | < 50 nM | – | – | – | – | – | – | – | – | – | – | – | –
6 | CCC1(C(=O)NC(C)C)CCN(c2ccc(-c3nc(-c4cnn(C5CCN(C(=O)CC6(O)CCN(c7ccc(N[C@@H]8CCC(=O)NC8=O)cc7F)CC6)CC5)c4)cn4ncc(C#N)c34)cn2)CC1 (single isomer, unassigned) [Compound 79] | – | < 30% | < 50 nM | – | – | – | – | – | – | – | – | – | ++++ (< 50 nM = ++++) | < 50 nM | < 30% | ++++ (< 50 nM = ++++) | < 50 nM | < 30%
7 | CCC1(C(=O)NC(C)C)CCN(c2ccc(-c3nc(-c4cnn(C5CCN(C(=O)Cc6ccc(-c7ccc(NC8CCC(=O)NC8=O)cc7F)cc6)CC5)c4)cn4ncc(C#N)c34)cn2)CC1 (stereo not drawn) [Compound 89, 1-[5-[3-cyano-6-[1-[1-[2-[4-[4-[(2,6-dioxo-3-piperidyl)amino]-2-fluoro-phenyl]phenyl]acetyl]-4-piperidyl]pyrazol-4-yl]pyrazolo[1,5-a]pyrazin-4-yl]-2-pyridyl]-4-ethyl-N-isopropyl-piperidine-4-carboxamide] | ++++ (<50 nM = ++++) | < 50% | < 100 nM | ++++ (<50 nM = ++++) | < 30% | < 50 nM | – | – | – | – | – | – | – | – | – | – | – | –
8 | N#Cc1cnn2cc(-c3cnn([C@H]4CC[C@@H](N5CCN(c6ccc(N[C@@H]7CCC(=O)NC7=O)cc6F)CC5)CC4)c3)nc(-c3ccc(N4CC5CC(C4)N5C(=O)c4c(F)cccc4F)nc3)c12 (single isomer, unassigned) [Compound 172] | ++++ (<50 nM = ++++) | < 30% | < 50 nM | ++++ (<50 nM = ++++) | < 30% | < 50 nM | – | – | – | – | – | – | – | – | – | – | – | –
9 | N#Cc1cnn2cc(-c3cnn([C@H]4CC[C@@H](N5CCN(c6c(F)cc(NC7CCC(=O)NC7=O)cc6F)CC5)CC4)c3)cc(-c3ccc(N4CCC5(CC4)OCc4cccnc45)nc3)c12 (single isomer, unassigned) [Compound 202, 4-(6-(5H-spiro[furo[3,4-b]pyridine-7,4′-piperidin]-1′-yl)pyridin-3-yl)-6-(1-((1s, 4s)-4-(4-(4-((2,6-dioxopiperidin-3-yl)amino)-2,6-difluorophenyl)piperazin-1-yl)cyclohexyl)-1H-pyrazol-4-yl)pyrazolo[1,5-a]pyridine-3-carbonitrile] | ++++ (<50 nM = ++++) | < 30% | < 50 nM | ++++ (<50 nM = ++++) | < 30% | < 50 nM | – | – | – | – | – | – | – | – | – | – | – | –
10 | CCC1(C(=O)NC(C)C)CCN(c2ccc(-c3nc(-c4cnn(C5CCN(C(=O)CC6(O)CCN(c7ccc(NC8CCC(=O)NC8=O)cc7F)CC6)CC5)c4)cn4ncc(C#N)c34)cn2)CC1 (stereo not drawn) [Compound 30, 1-(5-(3-Cyano-6-(1-(1-(2-(1-(4-((2,6-dioxopiperidin-3-yl)amino)-2-fluorophenyl)-4-hydroxypiperidin-4-yl)acetyl)piperidin-4-yl)-1H-pyrazol-4-yl)pyrazolo[1,5-a]pyrazin-4-yl)pyridin-2-yl)-4-ethyl-N-isopropylpiperidine-4-carboxamide] | – | < 50% | < 50 nM | – | – | – | +++ (<50% = +++) | ++++ (< 50 nM = ++++) | < 50 nM | ++++ (< 50 nM = ++++) | < 50 nM | < 30% | – | – | – | – | – | –
